The supplement of paper PMC10307832

What was measured:
Assay in all cases: relative viability (nuclei count vs DMSO), 5 days (fraction); higher = more cells survive
[1] = compound: CC1=CC(=CC=C1)NC2=NC(=CS2)C3=CC=NC=C3 + Nc1nc2[nH]cc(CCc3ccc(C(=O)N[C@@H](CCC(=O)O)C(=O)O)cc3)c2c(=O)[nH]1 [Pemetrexed] (partner 0.2 µM)
Outline: (§1)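 Lung cancer cell lines in 1536-well plates were dosed by pin tool the day after seeding, either with one drug alone or with a fixed anchor-drug dose plus five library-drug doses (not always all listed) in √10 steps. After 5 days, cells were fixed and their nuclei stained in one step (final 0.05% Triton X-100, 1% formaldehyde, 1 ug/ml Hoechst), then counted on 4× images. Relative viability is the nuclei count in treated wells divided by that in vehicle wells. Values are medians of duplicate plates.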

[2] = compound: Cc1ccc(NC(=O)c2ccc(CN3CCN(C)CC3)cc2)cc1Nc1nc(-c2cccnc2)cs1 [Masitinib] + COc1cccc2cc(-c3nc([C@H]4CC[C@H](C(=O)O)CC4)n4ncnc(N)c34)[nH]c12 [OSI-027] (partner 0.5 µM)
Outline: as §1

[3] = compound: CC1=CC(=CC=C1)NC2=NC(=CS2)C3=CC=NC=C3 + CCNC(=O)c1noc(-c2cc(C(C)C)c(O)cc2O)c1-c1ccc(CN2CCOCC2)cc1 [Luminespib] (partner 0.01 µM)
Outline: as §1

[4] = compound: CC1=CC(=CC=C1)NC2=NC(=CS2)C3=CC=NC=C3 + C[C@@H](Oc1cc(-c2cnn(C3CCNCC3)c2)cnc1N)c1c(Cl)ccc(F)c1Cl [Crizotinib] (partner 1 µM)
Outline: as §1

| Cell Line | relative viability ([1]; first compound 0.08 µM) | relative viability ([1]; first compound 0.253 µM) | relative viability ([1]; first compound 0.8 µM) | relative viability ([1]; first compound 8 µM) | relative viability ([2]; first compound 0.01 µM) | relative viability ([2]; first compound 0.03162 µM) | relative viability ([2]; first compound 0.1 µM) | relative viability ([2]; first compound 0.3162 µM) | relative viability ([2]; first compound 1 µM) | relative viability ([3]; first compound 0.08 µM) | relative viability ([3]; first compound 0.253 µM) | relative viability ([3]; first compound 0.8 µM) | relative viability ([3]; first compound 2.53 µM) | relative viability ([3]; first compound 8 µM) | relative viability ([4]; first compound 0.08 µM) | relative viability ([4]; first compound 0.253 µM) | relative viability ([4]; first compound 0.8 µM) | relative viability ([4]; first compound 2.53 µM) | relative viability ([4]; first compound 8 µM) | relative viability ([1]; first compound 2.53 µM) |
| --- | --- | --- | --- | --- | --- | --- | --- | --- | --- | --- | --- | --- | --- | --- | --- | --- | --- | --- | --- | --- |
| NCI-H2405 | 0.921 | 0.985 | 0.999 | 0.903 | 0.62 | 0.63 | 0.633 | 0.609 | 0.659 | 0.583 | 0.589 | 0.63 | 0.666 | 0.64 | 0.684 | 0.774 | 0.615 | 0.874 | 0.808 |  |
| NCI-H3122 | 0.202 | 0.202 | 0.191 | 0.19 |  | 1.38 |  | 0.969 | 1.09 | 0.125 | 0.0766 | 0.101 | 0.0836 | 0.105 | 0.266 | 0.31 | 0.334 | 0.332 | 0.47 | 0.226 |
| PC-3 [JPC-3] | 0.909 |  | 1.15 | 1.05 | 0.381 | 0.643 | 0.783 | 0.64 | 0.694 | 0.715 | 0.723 | 0.532 | 0.633 | 0.629 | 0.875 | 0.913 | 0.852 | 0.904 | 0.799 | 0.961 |
| PC-14 | 0.144 | 0.131 | 0.141 | 0.136 | 0.887 | 0.794 | 0.822 | 0.875 | 0.826 | 0.143 | 0.183 | 0.171 | 0.123 | 0.138 | 0.87 | 0.881 | 0.821 | 0.951 | 0.695 | 0.134 |
| RERF-LC-KJ | 0.518 | 0.488 | 0.506 | 0.474 | 0.629 | 0.517 | 0.583 | 0.418 | 0.412 | 1.06 | 1.19 | 0.982 | 0.999 | 0.717 | 0.741 | 0.705 | 0.556 | 0.59 | 0.512 | 0.361 |
| SK-LU-1 | 0.906 | 1.03 | 0.691 | 0.937 | 0.361 | 0.334 | 0.346 | 0.329 | 0.368 | 0.205 | 0.223 |  | 0.183 | 0.227 | 0.751 | 1 | 0.636 | 0.912 | 0.938 | 0.997 |
| SK-MES-1 | 0.757 | 0.762 | 0.787 | 0.862 | 0.615 | 0.668 | 0.684 | 0.52 | 0.651 | 0.614 | 0.515 | 0.556 | 0.749 | 0.508 | 0.79 | 0.781 | 0.815 | 0.842 | 0.853 | 0.822 |
| SW 1573 | 0.835 | 0.746 | 0.787 | 0.763 | 0.646 | 0.627 | 0.798 | 0.66 | 0.559 | 0.296 | 0.19 | 0.16 | 0.248 | 0.253 | 0.671 | 0.77 | 0.864 | 1.01 | 0.783 | 0.763 |
| UMC-11 | 0.662 | 0.802 | 0.775 | 0.825 |  | 0.46 | 0.487 | 0.491 | 0.46 | 1.01 | 1.05 | 1.06 | 1.07 | 1.09 | 0.602 | 0.582 | 0.544 | 0.579 | 0.72 | 0.834 |
